# Results as given in BindingDB's records for doi:10.1021/ml300128f (The Scripps Research Institute, 2012).
# Molecular target: Elastase (Pseudomonas aeruginosa (strain ATCC 15692 / DSM 22644 / CIP 104116 / JCM 14847 / LMG 12228 / 1C / PRS 101 / PAO1), UniProt P14756)
# Assay: Antagonist activity at Pseudomonas aeruginosa LasB using Abz-Ala-Gly-Leu-Ala-p-Nitro-Benzyl-Amide as substrate incubated for 30 mins prior to substrate addition by FRET assay
# Chain of Elastase (P14756 whole entry): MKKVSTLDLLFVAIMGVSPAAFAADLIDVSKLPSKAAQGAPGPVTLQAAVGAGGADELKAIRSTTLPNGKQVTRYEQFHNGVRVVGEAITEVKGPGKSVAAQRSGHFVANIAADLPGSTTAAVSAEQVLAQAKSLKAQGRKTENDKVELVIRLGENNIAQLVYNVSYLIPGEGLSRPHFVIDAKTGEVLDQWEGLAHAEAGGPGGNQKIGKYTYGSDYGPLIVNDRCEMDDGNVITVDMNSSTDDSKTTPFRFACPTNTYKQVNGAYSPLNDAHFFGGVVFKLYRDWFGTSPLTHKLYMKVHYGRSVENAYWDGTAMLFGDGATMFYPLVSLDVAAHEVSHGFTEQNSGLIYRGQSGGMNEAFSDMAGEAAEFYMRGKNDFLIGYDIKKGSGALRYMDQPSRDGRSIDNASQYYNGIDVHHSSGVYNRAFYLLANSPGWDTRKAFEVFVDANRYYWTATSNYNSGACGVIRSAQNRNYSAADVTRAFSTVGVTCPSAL
row,Structure (SMILES),IC50
1,CCc1c(O)c(=S)ccn1CC,392 µM
2,Cc1c(O)c(=S)ccn1C,80.6 µM
